Results on 18 molecules are retold here after patent US20240043427A1 (Gilead Sciences, Inc., priority 2020, published 2024).

Each structure is given as a SMILES string.

Assay [1] concerns the target T1, CD73 (Homo sapiens (Human), UniProt P21589). The assay can be described thus: MDA-MB-231 Cell Based CD73 Activity Assay (DMEM). The note with it: MDA-MB-231-GFP cells, DMEM medium with 10% human plasma, 200 uM AMP.
In assay [2] the target is T1, CD73. Format: biochemical. The note with it: 1 mM NaH2PO4 in enzyme buffer, CD73 0.3 nM, AMP 15 uM.

T1 sequence (P21589 27-574): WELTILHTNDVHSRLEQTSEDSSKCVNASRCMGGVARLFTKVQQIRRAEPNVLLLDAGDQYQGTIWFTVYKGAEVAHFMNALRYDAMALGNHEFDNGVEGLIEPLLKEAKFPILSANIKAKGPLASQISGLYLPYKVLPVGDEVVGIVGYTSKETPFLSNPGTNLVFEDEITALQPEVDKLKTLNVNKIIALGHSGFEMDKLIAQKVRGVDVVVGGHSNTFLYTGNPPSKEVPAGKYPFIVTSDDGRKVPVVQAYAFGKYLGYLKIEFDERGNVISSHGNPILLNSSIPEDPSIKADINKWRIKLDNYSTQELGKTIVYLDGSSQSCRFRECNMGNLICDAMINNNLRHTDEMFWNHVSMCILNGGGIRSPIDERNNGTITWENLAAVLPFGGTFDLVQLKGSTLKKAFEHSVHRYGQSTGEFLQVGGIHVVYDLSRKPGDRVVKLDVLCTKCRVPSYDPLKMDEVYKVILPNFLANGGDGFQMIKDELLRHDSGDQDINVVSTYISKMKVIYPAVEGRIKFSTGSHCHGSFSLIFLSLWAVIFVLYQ

Broadly, the EC50 is the midpoint of the concentration-response curve. The IC50 is the midpoint of a concentration-inhibition curve. With `C[C@@H]1CN(c2cc(-c3c[nH]c(=O)[nH]c3=O)nn3c(Cl)cnc23)CC1(F)F` [Example 521, (R)-5-(3-chloro-8-(3,3-difluoro-4-methylpyrrolidin-1-yl)imidazo[1,2-b]pyridazin-6-yl)pyrimidine-2,4(1H,3H)-dione], the concentration for a half-maximal effect (EC50) on CD73 [1] was 223 nM. This molecule registered a half-maximal inhibitory concentration (IC50) against CD73 [2] of 33.3 nM.

With `CC1(C)CN(c2cc(-c3c[nH]c(=O)[nH]c3=O)nn3c(Cl)cnc23)CC1(F)F` [Example 522, 5-(3-chloro-8-(3,3-difluoro-4,4-dimethylpyrrolidin-1-yl)imidazo[1,2-b]pyridazin-6-yl)pyrimidine-2,4(1H,3H)-dione], a half-maximal response at CD73 [1] (EC50) required 23.6 nM. This molecule also yielded an IC50 against CD73 [2] of 1.26 nM.

In the case of `O=c1[nH]cc(-c2cc(N3CC(Oc4ccc(C(F)(F)F)cn4)C(F)(F)C3)c3nccn3n2)c(=O)[nH]1` (stereo not drawn) [Example 523, 5-(8-(3,3-difluoro-4-((5-(trifluoromethyl)pyridin-2-yl)oxy)pyrrolidin-1-yl)imidazo[1,2-b]pyridazin-6-yl)pyrimidine-2,4(1H,3H)-dione], the EC50 at CD73 [1] is 3.96 nM. The same molecule showed a 50% inhibitory concentration (IC50) on CD73 [2] of 1.92 nM.

As for `O=c1[nH]cc(-c2cc(N3CC(OCC(F)F)C(F)(F)C3)c3nccn3n2)c(=O)[nH]1` (stereo not drawn) [Example 524, 5-(8-(4-(2,2-difluoroethoxy)-3,3-difluoropyrrolidin-1-yl)imidazo[1,2-b]pyridazin-6-yl)pyrimidine-2,4(1H,3H)-dione], the 50% effective concentration (EC50) at CD73 [1] amounted to 11 nM. The molecule further registered an IC50 against CD73 [2] of 3.75 nM.

`CCOC(=O)OC1CN(c2cc(-c3c[nH]c(=O)[nH]c3=O)nn3ccnc23)CC1(F)F` (stereo not drawn) [Example 525, 1-(6-(2,4-dioxo-1,2,3,4-tetrahydropyrimidin-5-yl)imidazo[1,2-b]pyridazin-8-yl)-4,4-difluoropyrrolidin-3-yl ethyl carbonate] registered a 50% effective concentration (EC50) at CD73 [1] of 4.43 nM. At CD73 [2], the concentration for half-maximal inhibition (IC50) worked out at 1.54 nM.

With `CCNC(=O)OC1CN(c2cc(-c3c[nH]c(=O)[nH]c3=O)nn3ccnc23)CC1(F)F` (stereo not drawn) [Example 526, 1-(6-(2,4-dioxo-1,2,3,4-tetrahydropyrimidin-5-yl)imidazo[1,2-b]pyridazin-8-yl)-4,4-difluoropyrrolidin-3-yl ethylcarbamate], the midpoint of the response at CD73 [1], the EC50, lay at 1.13 nM. Inhibition against CD73 [2] was half-maximal at 1.32 nM (IC50).

`O=c1[nH]cc(-c2cc(N3C[C@H](Oc4ccc(C(F)(F)F)cn4)C(F)(F)C3)c3nccn3n2)c(=O)[nH]1` [Example 529, (S)-5-(8-(3,3-difluoro-4-((5-(trifluoromethyl)pyridin-2-yl)oxy)pyrrolidin-1-yl)imidazo[1,2-b]pyridazin-6-yl)pyrimidine-2,4(1H,3H)-dione]: on CD73 [1], the midpoint of the response, the EC50, lay at 2.25 nM. At CD73 [2], this molecule displayed a half-maximal inhibitory concentration (IC50) of 0.7 nM.

In the case of `O=c1[nH]cc(-c2cc(N3C[C@@H](Oc4ccc(C(F)(F)F)cn4)C(F)(F)C3)c3nccn3n2)c(=O)[nH]1` [Example 530, (R)-5-(8-(3,3-difluoro-4-((5-(trifluoromethyl)pyridin-2-yl)oxy)pyrrolidin-1-yl)imidazo[1,2-b]pyridazin-6-yl)pyrimidine-2,4(1H,3H)-dione], the response at CD73 [1] was half-maximal at 50.8 nM (EC50). The 50% inhibitory concentration (IC50) against CD73 [2] came out at 12.4 nM.

On CD73 [1], `O=c1[nH]cc(-c2cc(N3C[C@H](Oc4ncc(C(F)(F)F)cn4)C(F)(F)C3)c3nccn3n2)c(=O)[nH]1` [Example 531, (S)-5-(8-(3,3-difluoro-4-((5-(trifluoromethyl)pyrimidin-2-yl)oxy)pyrrolidin-1-yl)imidazo[1,2-b]pyridazin-6-yl)pyrimidine-2,4(1H,3H)-dione] had an EC50 of 11.4 nM. In addition, on CD73 [2], half-maximal inhibition (IC50) was put at 1.34 nM.

On to `O=c1[nH]cc(-c2cc(N3C[C@@H](Oc4ncc(C(F)(F)F)cn4)C(F)(F)C3)c3nccn3n2)c(=O)[nH]1` [Example 532, (R)-5-(8-(3,3-difluoro-4-((5-(trifluoromethyl)pyrimidin-2-yl)oxy)pyrrolidin-1-yl)imidazo[1,2-b]pyridazin-6-yl)pyrimidine-2,4(1H,3H)-dione], for which, at CD73 [1], the EC50 is 21.5 nM. In addition, the IC50 against CD73 [2] is 4.42 nM.

`CC(C)NC(=O)O[C@H]1CN(c2cc(-c3c[nH]c(=O)[nH]c3=O)nn3ccnc23)CC1(F)F` [Example 533, (S)-1-(6-(2,4-dioxo-1,2,3,4-tetrahydropyrimidin-5-yl)imidazo[1,2-b]pyridazin-8-yl)-4,4-difluoropyrrolidin-3-yl isopropylcarbamate] came in with an EC50 at CD73 [1] of 0.17 nM. On CD73 [2], this molecule returned an IC50 of 0.78 nM.

`CC(C)NC(=O)O[C@@H]1CN(c2cc(-c3c[nH]c(=O)[nH]c3=O)nn3ccnc23)CC1(F)F` [Example 534, (R)-1-(6-(2,4-dioxo-1,2,3,4-tetrahydropyrimidin-5-yl)imidazo[1,2-b]pyridazin-8-yl)-4,4-difluoropyrrolidin-3-yl isopropylcarbamate] displayed an EC50 at CD73 [1] of 5.18 nM. Moreover, inhibition against CD73 [2] was half-maximal at 9.8 nM (IC50).

The molecule `O=C(NCC(F)(F)F)OC1CN(c2cc(-c3c[nH]c(=O)[nH]c3=O)nn3ccnc23)CC1(F)F` (stereo not drawn) [Example 535, 1-(6-(2,4-dioxo-1,2,3,4-tetrahydropyrimidin-5-yl)imidazo[1,2-b]pyridazin-8-yl)-4,4-difluoropyrrolidin-3-yl (2,2,2-trifluoroethyl)carbamate] gave a half-maximal effective concentration (EC50) at CD73 [1] of 0.71 nM. In addition, at CD73 [2], the concentration for half-maximal inhibition (IC50) worked out at 1.63 nM.

For `O=C(OC1CN(c2cc(-c3c[nH]c(=O)[nH]c3=O)nn3ccnc23)CC1(F)F)N1CC(F)(F)C1` (stereo not drawn) [Example 536, 1-(6-(2,4-dioxo-1,2,3,4-tetrahydropyrimidin-5-yl)imidazo[1,2-b]pyridazin-8-yl)-4,4-difluoropyrrolidin-3-yl 3,3-difluoroazetidine-1-carboxylate], the midpoint of the response on CD73 [1], the EC50, lay at 5.05 nM. Also, the IC50 against CD73 [2] is 3.83 nM.

As to `O=c1[nH]cc(-c2cc(N3C[C@H](Oc4ccccn4)C(F)(F)C3)c3nccn3n2)c(=O)[nH]1` [Example 537, (S)-5-(8-(3,3-difluoro-4-(pyridin-2-yloxy)pyrrolidin-1-yl)imidazo[1,2-b]pyridazin-6-yl)pyrimidine-2,4(1H,3H)-dione], at CD73 [1], a half-maximal effect (EC50) was put at 2.09 nM. The molecule also gave an IC50 at CD73 [2] of 0.42 nM.

`O=c1[nH]cc(-c2cc(N3C[C@@H](Oc4ccccn4)C(F)(F)C3)c3nccn3n2)c(=O)[nH]1` [Example 538, (R)-5-(8-(3,3-difluoro-4-(pyridin-2-yloxy)pyrrolidin-1-yl)imidazo[1,2-b]pyridazin-6-yl)pyrimidine-2,4(1H,3H)-dione] came in with a 50% effective concentration (EC50) on CD73 [1] of 48.9 nM. Besides, inhibition against CD73 [2] was half-maximal at 11.5 nM (IC50).

Consider `O=C(OCC(F)(F)F)O[C@H]1CN(c2cc(-c3c[nH]c(=O)[nH]c3=O)nn3ccnc23)CC1(F)F` [Example 541, (S)-1-(6-(2,4-dioxo-1,2,3,4-tetrahydropyrimidin-5-yl)imidazo[1,2-b]pyridazin-8-yl)-4,4-difluoropyrrolidin-3-yl (2,2,2-trifluoroethyl) carbonate], for which, at CD73 [1], the EC50 was found to be 36.3 nM. On CD73 [2], this molecule showed a half-inhibitory concentration (IC50) of 0.55 nM.

Consider `O=C(OCC(F)(F)F)O[C@@H]1CN(c2cc(-c3c[nH]c(=O)[nH]c3=O)nn3ccnc23)CC1(F)F` [Example 543, (R)-1-(6-(2,4-dioxo-1,2,3,4-tetrahydropyrimidin-5-yl)imidazo[1,2-b]pyridazin-8-yl)-4,4-difluoropyrrolidin-3-yl (2,2,2-trifluoroethyl) carbonate], for which the half-maximal effective concentration (EC50) at CD73 [1] worked out at 17.4 nM. Moreover, the IC50 at CD73 [2] stood at 1.43 nM.
